How the values were obtained:
[1] = tested on: RSV (Respiratory syncitial virus); assay: Virucidal suspension test (EN14476), virus kill of RSV; assay type: cell-based; conditions: contact time five minutes, clean conditions (bovine albumin)
Protocol: (§1) The virucidal activity of various test solutions were measured using the following protocol.
(§2) A standard EST protocol (EN14476) was followed for the evaluation of activity of antiviral actives in suspension test. Antiviral activity of actives was tested in clean conditions.
(§3) Clean conditions: To create clean conditions, 0.3 g of bovine albumin fraction V was dissolved in 100 ml of water and sterilised by passing the solution through a 0.2 μm filter).
(§4) Preparation of test mixture: To prepare the test mixture, 1 ml of interfering substance (Bovine Albumin) was pipetted into a suitable container, followed by addition of 1 ml of test virus suspension. To this, 8 ml of product test solution was added. At the end of chosen contact time period, 100 μl of the test mixture was added to resin column. Centrifugation of microspin column (735×g, 2 min). The elutant was diluted up to 10^−6 in ice cold virus growth medium. The infectivity of each dilution was measured by TCID50 using the Spaerman-Karber formula. Titration of Virus: Monolayers of cells were grown in 96-well tissue-culture plates (Costar) at 37° C. in an atmosphere of 95% air and 5% carbon dioxide (CO2). Tenfold dilutions of virus suspension were prepared in virus growth medium. One hundred microlitres of each dilution was added to five replicate wells in 96-well tissue-culture plates. Cell controls were included on each plate. Plates were incubated at 37° C. in an atmosphere of 95% air/5% CO2. Cultures were observed daily for viral cytopathic effect for a period of seven days after which they were discarded. The virus titre was calculated by TCID50 (Tissue culture infective dose) using the Spaerman-Karber formula.
(§5) Negative logarithm of the 50% end point=Negative logarithm of the highest virus concentration used−[(Sum of % affected at each dilution/100−0.5)×([…])]
Various compositions as shown in Table-2 were prepared and their virucidal activity was measured using the procedure given earlier. […]
Various compositions as shown in Table-5 were prepared and their virucidal activity was measured using the procedure given earlier. […]

FCV (Feline Calcivirus) = assay: Virucidal suspension test (EN14476), viral kill of FCV; assay type: cell-based, Feline Calicivirus; conditions: contact time five minutes, clean conditions (bovine albumin)
Protocol: as §1, §2, §3, §4, §5
Various compositions as shown in Table-1 were prepared and their virucidal activity was measured using the procedure given earlier. […]
Various compositions as shown in Table-4 were prepared and their virucidal activity was measured using the procedure given earlier. […]

MS2 Phage = assay: Virucidal suspension test (EN14476), virus kill of MS-2 bacteriophage; assay type: cell-based; conditions: contact time five minutes, clean conditions (bovine albumin), MS2 Phage control 6.36, Table 3
Protocol: as §1, §2, §3
Preparation of test mixture: To prepare the test mixture, 1 ml of interfering substance (Bovine Albumin) was pipetted into a suitable container, followed by addition of 1 ml of test virus suspension. To this, 8 ml of product test solution was added. At the end of chosen contact time period, 100 μl of the test mixture was added to resin column. Centrifugation of microspin column (735×g, 2 min). The elutant was diluted up to 10^−6 in ice cold virus growth medium. The infectivity of each dilution was measured by TCID50 using the Spaerman-Karber formula. Titration of Virus: Monolayers of cells were grown in 96-well tissue-culture plates (Costar) at 37° C. in an atmosphere of 95% air and 5% carbon dioxide (CO2). […] The virus titre was calculated by TCID50 (Tissue culture infective dose) using the Spaerman-Karber formula. […]
Various compositions as shown in Table-3 were prepared and their virucidal activity was measured using the procedure given earlier. […]

Compound | amount of virus remaining, Log TCID50/0.1 ml ([1]; RSV Control 5.00, Table 2) [Log TCID50/0.1 ml] | amount of virus remaining, Log TCID50/0.1 ml (FCV (Feline Calcivirus); FCV Control 4.50, Table 1) [Log TCID50/0.1 ml] | amount of virus remaining, Log TCID50/0.1 ml ([1]; RSV Control 4.70, Table 5) [Log TCID50/0.1 ml] | amount of virus remaining, Log TCID50/0.1 ml (FCV (Feline Calcivirus); FCV Control 5.50, Table 4) [Log TCID50/0.1 ml] | amount of virus remaining, Log TCID50/0.1 ml (MS2 Phage) [Log TCID50/0.1 ml]
COc1cc(/C=C/C(=O)CC(=O)/C=C/c2ccc(O)c(OC)c2)ccc1O [Example 3, Curcumin] | 4.65 | 3.40 | – | – | –
benzalkonium chloride [Example 2] | 2.50 | 3.25 | – | – | –
benzalkonium chloride [Example 10] | – | – | 3.90 | 3.10 | 1.94

From patent publication US20130316027A1, “ANTIMICROBIAL COMPOSITION” (priority 2011, published 2013)
